From US4994477A, “Heterocyclic renin inhibitors” (Abbott Laboratories, priority 1988, dated 1991)

Molecular target: T1, human renal renin (Homo sapiens, UniProt P00797)
T1 construct: human renal renin, free from acid proteolytic activity; from tissue; host or cells: human kidney (from the word 'renal')
T1 sequence (P00797 67-406): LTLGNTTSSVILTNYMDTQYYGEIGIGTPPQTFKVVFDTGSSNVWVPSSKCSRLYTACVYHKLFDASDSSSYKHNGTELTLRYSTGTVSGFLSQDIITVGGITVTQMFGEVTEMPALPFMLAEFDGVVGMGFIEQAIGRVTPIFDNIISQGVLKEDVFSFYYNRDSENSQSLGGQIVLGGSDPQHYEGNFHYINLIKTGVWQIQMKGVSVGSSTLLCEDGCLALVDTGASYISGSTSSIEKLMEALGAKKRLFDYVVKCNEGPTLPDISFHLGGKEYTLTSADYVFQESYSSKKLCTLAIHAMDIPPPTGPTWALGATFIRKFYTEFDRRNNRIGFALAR
Assay: inhibition of human renal renin in vitro, angiotensin I formed measured by radioimmunoassay
Format: biochemical
Conditions: human angiotensinogen substrate, 37 degrees C, pH 6.0
Experimental: At the end of the incubation, the amount of angiotensin I formed is measured by radioimmunoassay and the molar concentration required to cause 50% inhibition, expressed as the IC50, is calculated.

IC50: 12 nM
SMILES: CCN1C[C@@H]([C@H](O)[C@H](CC2CCCCC2)NC(=O)[C@H](Cc2c[nH]cn2)NC(=O)c2cc3ccccc3[nH]2)OC1=O [Example 51, N-(Indolyl-2-carbonyl)-His-Amide of (2'S,1'R,5S)-3-Ethyl-5-(1'-hydroxy-2'-amino-3'-cyclohexylpropyl)oxazolidin-2one]
